According to US4975447A, “6-hydroxyethoxy-2-benzothiazolesulfonamide and topical treatment compositions and method for glaucoma” (University of Iowa Research Foundation, priority 1985, dated 1990):
Several values for one entry are separate records, joined by “and”; a condition that tells them apart may be missing. Equal entries are not always repeated.

Experiments:
[1] = system: eyes of rabbits (intraocular pressure); assay: Measurement of intraocular pressure ("Salted Rabbit Test"), applanation tonometry, topical 1% suspension; type: in vivo; conditions: for Ave. change in IOP: 50 μl of 1% suspension q 2 min x 3
Protocol: ("Salted Rabbit Test") (IOP)
Rabbits (3-4 months old) were maintained on […] solution in place of drinking water for 3 weeks prior to the determination of IOP because it has been shown that a diet deficient in sodium produces a variable response to this class of drugs. During this 3 week period numerous IOP measurements were made to familiarize the rabbits with this procedure. Baseline IOP measurements were determined by applanation tonometry following topical administration of 3 drops of 1% suspension of analog CAI inhibitor to one eye. The fellow eye received blank vehicle. The observer was masked. Each eye received 1 to 2 drops of proparacaine hydrochloride (0.5%) to anethetize the cornea prior to placing the sensor tip of the tonometer flot on the cornea. IOP measurements were determined over 180 minutes at 20 minute intervals. Changes in IOP were expressed as:
IOP change=IOP (dosed eye - control eye)t -IOP (dosed eye prior to
administration - control eye)t=O
Intraocular pressure (IOP) measurements of 6-hydroxyethoxy-2-benzothiazole sulfonamide in rabbits^a maintained on 3% sodium chloride drinking water following topical instillation.^b,c
^b The dose was 50 μl of a 1% suspension q 2 minutes for a total of 3 doses

[2] = system: lasered eyes of cynomologous monkeys (intraocular pressure); assay: Intraocular pressure by pneumatonometry, "DeSantis" test, laser-treated hypertensive right eye (OD); type: in vivo, cynomologous monkey; conditions: for IOP (individual monkey) / Mean IOP / Mean % change of IOP / Mean % change of IOP versus control: OD (lasered)
From the text: (§1) Because there are certain differences in the eyes of rabbits and man, it was desired to test topical carbonic anhydrase inhibition by the compound of the present invention in a subhuman primate species to confirm the presence of activity by this route. The cynomologous monkey was chosen to represent the species. Because drug effects on intraocular pressure are sometimes less dramatic or not demonstrable using an eye that is normotensive, a test protocol known as the "DeSantis" test was developed. It involves testing the carbonic anhydrase inhibitor effects in eyes made hypertensive by laser treatment. […] After the eye was allowed to recover from the inflammatory process which accompanied the laser treatment, it was used to test the subject drugs.
(§2) Intraocular pressure (IOP) was determined using an Alcon Pneumatonograph after light corneal anesthesia with proparacaine, before and at 1, 3 and 7 hours after installation of drug to both eyes of each of six cynomologous monkeys per group. […] Animals were trained to sit in restraint chairs and to accept the pressure measurement. Following the measurement, residual anesthetic was washed out with saline.
(§3) Data for the intraocular pressure studies are presented in the attached tables, where the lasered eyes but not the normal eyes show significant reduction of intraocular pressure compared to control animals.
(§4) In the tables below "OD" refers to ocular dexter, and "OS" refers to ocular sinnister. This is simply another way of saying right and left eye. The designation number in the lefthand column of each table refers to the designation number assigned to each monkey. "SE" refers to standard error.

[3] = system: normal eyes of cynomologous monkeys (intraocular pressure); assay: Intraocular pressure by pneumatonometry, normal left eye (OS); type: in vivo, cynomologous monkey
From the text: as §1, §2, §3, §4

[4] = Table 1, 1.0% gel, 0 hr (before drug)
[5] = Table 2 (six days later), 1.0% gel, 0 hr (before drug)
[6] = Table 2 (six days later), 1.0% gel, 3 hr
[7] = Table 2 (six days later), 1.0% gel, 7 hr
[8] = Table 3, 3.0% gel, 0 hr (before drug)
[9] = Table 4, 3.0% gel, 0 hr (before drug)
[10] = Table 4, 3.0% gel, 0 hr (before drug), listed as 6-Hydroxyethoxy-2-benzothiazolesulfomaide
[11] = Table 4, 3.0% gel, 1 hr, listed as 6-Hydroxyethoxy-2-benzothiazolesulfomaide
[12] = Table 4, 3.0% gel, 3 hr, listed as 6-Hydroxyethoxy-2-benzothiazolesulfomaide
[13] = Table 4, 3.0% gel, 7 hr, listed as 6-Hydroxyethoxy-2-benzothiazolesulfomaide

SMILES: NS(=O)(=O)c1nc2ccc(OCCO)cc2s1 [6-hydroxyethoxy-2-benzothiazolesulfonamide]
- Ave. change in IOP ([1]; 20 min after dosing, N=12, probability N.S.): -0.2 mm Hg
- Ave. change in IOP ([1]; 40 min after dosing, N=12, probability 0.07): -1.1 mm Hg
- Ave. change in IOP ([1]; 60 min after dosing, N=12, probability 0.04): -1.1 mm Hg
- Ave. change in IOP ([1]; 80 min after dosing, N=12, probability 0.12): -0.8 mm Hg
- Ave. change in IOP ([1]; 100 min after dosing, N=12, probability 0.04): -1.2 mm Hg
- Ave. change in IOP ([1]; 120 min after dosing, N=12, probability N.S.): -0.5 mm Hg
- Ave. change in IOP ([1]; 140 min after dosing, N=12, probability N.S.): 0.2 mm Hg
- Ave. change in IOP ([1]; 160 min after dosing, N=12, probability N.S.): 0.3 mm Hg
- Ave. change in IOP ([1]; 180 min after dosing, N=12, probability N.S.): -0.2 mm Hg
- effectiveness for topical treatment of glaucoma (in words) ([1]; rabbits): an effective treating composition for topical treatment of glaucoma
- Ave. change in IOP ([1]; time 0 (baseline), N=12 rabbits): 0 mm Hg
- IOP (individual monkey) [2, 4]: 28 mmHg and 46 mmHg and 35 mmHg and 48 mmHg and 38 mmHg and 25 mmHg
- Mean IOP [2, 4]: 36.7 mmHg
- IOP (individual monkey) ([2]; Table 1, 1.0% gel, 3 hr): 23 mmHg and 36 mmHg and 30 mmHg and 40 mmHg and 34 mmHg
- Mean % change of IOP ([2]; Table 1, 1.0% gel, 3 hr): -14.9%
- Mean IOP ([2]; Table 1, 1.0% gel, 3 hr): 31.0 mmHg
- IOP (individual monkey) ([2]; Table 1, 1.0% gel, 7 hr): 24 mmHg and 46 mmHg and 33 mmHg and 41 mmHg and 34 mmHg and 25 mmHg
- Mean % change of IOP ([2]; Table 1, 1.0% gel, 7 hr): -7.5%
- Mean IOP ([2]; Table 1, 1.0% gel, 7 hr): 33.8 mmHg
- IOP (individual monkey) [2, 5]: 51 mmHg and 52 mmHg and 34 mmHg and 38 mmHg and 28 mmHg and 30 mmHg
- Mean IOP [2, 5]: 38.8 mmHg
- IOP (individual monkey) [2, 6]: 38 mmHg and 50 mmHg and 29 mmHg and 35 mmHg and 27 mmHg and 26 mmHg
- Mean % change of IOP [2, 6]: -11.5%
- Mean IOP [2, 6]: 34.2 mmHg
- IOP (individual monkey) [2, 7]: 36 mmHg and 48 mmHg and 28 mmHg and 37 mmHg and 24 mmHg and 32 mmHg
- Mean % change of IOP [2, 7]: -10.8%
- Mean IOP [2, 7]: 34.2 mmHg
- IOP (individual monkey) [2, 8]: 50 mmHg and 35 mmHg and 33 mmHg and 55 mmHg and 40 mmHg and 44 mmHg
- Mean IOP [2, 8]: 42.8 mmHg
- IOP (individual monkey) ([2]; Table 3, 3.0% gel, 1 hr): 45 mmHg and 33 mmHg and 30 mmHg and 52 mmHg and 35 mmHg and 50 mmHg
- Mean % change of IOP versus control ([2]; Table 3, 3.0% gel, 1 hr): -4.9%
- Mean IOP ([2]; Table 3, 3.0% gel, 1 hr): 40.8 mmHg
- IOP (individual monkey) ([2]; Table 3, 3.0% gel, 3 hr): 41 mmHg and 20 mmHg and 30 mmHg and 57 mmHg and 32 mmHg and 45 mmHg
- Mean % change of IOP versus control ([2]; Table 3, 3.0% gel, 3 hr): -14.0%
- Mean IOP ([2]; Table 3, 3.0% gel, 3 hr): 37.5 mmHg
- IOP (individual monkey) ([2]; Table 3, 3.0% gel, 7 hr): 37 mmHg and 23 mmHg and 25 mmHg and 55 mmHg and 33 mmHg and 40 mmHg
- Mean % change of IOP versus control ([2]; Table 3, 3.0% gel, 7 hr): -18.5%
- Mean IOP ([2]; Table 3, 3.0% gel, 7 hr): 35.5 mmHg
- Mean % change of IOP [2, 9]: 0.0%
- Mean IOP [2, 9]: 44.7 mmHg
- IOP (individual monkey) [2, 10]: 38 mmHg and 55 mmHg and 37 mmHg and 42 mmHg and 50 mmHg and 46 mmHg
- Mean % change of IOP ([2]; Table 4, 3.0% gel, 1 hr): -10.1%
- Mean IOP ([2]; Table 4, 3.0% gel, 1 hr): 40.3 mmHg
- IOP (individual monkey) [2, 11]: 37 mmHg and 50 mmHg and 32 mmHg and 30 mmHg and 53 mmHg and 40 mmHg
- Mean % change of IOP ([2]; Table 4, 3.0% gel, 3 hr): -15.0%
- Mean IOP ([2]; Table 4, 3.0% gel, 3 hr): 38.3 mmHg
- IOP (individual monkey) [2, 12]: 33 mmHg and 47 mmHg and 29 mmHg and 21 mmHg and 45 mmHg and 55 mmHg
- Mean % change of IOP ([2]; Table 4, 3.0% gel, 7 hr): -16.8%
- Mean IOP ([2]; Table 4, 3.0% gel, 7 hr): 37.2 mmHg
- IOP (individual monkey) [2, 13]: 35 mmHg and 55 mmHg and 28 mmHg and 38 mmHg and 32 mmHg
- effectiveness for topical treatment of glaucoma (in words) ([2]; cynomologous monkeys): an effective treating composition for topical treatment of glaucoma
- IOP (individual monkey) [3, 4]: 33 mmHg and 19 mmHg and 24 mmHg and 23 mmHg and 20 mmHg
- Mean IOP [3, 4]: 25.3 mmHg
- IOP (individual monkey) ([3]; Table 1, 1.0% gel, 3 hr): 34 mmHg and 20 mmHg and 25 mmHg and 19 mmHg and 38 mmHg
- Mean % change of IOP ([3]; Table 1, 1.0% gel, 3 hr): +5.2%
- Mean IOP ([3]; Table 1, 1.0% gel, 3 hr): 26.8 mmHg
- IOP (individual monkey) ([3]; Table 1, 1.0% gel, 7 hr): 34 mmHg and 25 mmHg and 28 mmHg and 22 mmHg and 19 mmHg and 41 mmHg
- Mean % change of IOP ([3]; Table 1, 1.0% gel, 7 hr): +11.1%
- Mean IOP ([3]; Table 1, 1.0% gel, 7 hr): 28.2 mmHg
- IOP (individual monkey) [3, 5]: 30 mmHg and 22 mmHg and 25 mmHg and 27 mmHg and 24 mmHg
- Mean IOP [3, 5]: 25.0 mmHg
- IOP (individual monkey) [3, 6]: 29 mmHg and 23 mmHg and 26 mmHg and 27 mmHg and 24 mmHg
- Mean % change of IOP [3, 6]: +1.9%
- Mean IOP [3, 6]: 25.3 mmHg
- IOP (individual monkey) [3, 7]: 27 mmHg and 23 mmHg and 28 mmHg and 24 mmHg
- Mean % change of IOP [3, 7]: +5.2%
- Mean IOP [3, 7]: 26.0 mmHg
- IOP (individual monkey) [3, 8]: 27 mmHg and 24 mmHg and 22 mmHg and 26 mmHg and 30 mmHg
- Mean IOP [3, 8]: 25.5 mmHg
- IOP (individual monkey) ([3]; Table 3, 3.0% gel, 1 hr): 25 mmHg and 29 mmHg and 24 mmHg and 30 mmHg
- Mean % change of IOP ([3]; Table 3, 3.0% gel, 1 hr): +1.7%
- Mean IOP ([3]; Table 3, 3.0% gel, 1 hr): 26.0 mmHg
- IOP (individual monkey) ([3]; Table 3, 3.0% gel, 3 hr): 23 mmHg and 27 mmHg and 28 mmHg and 25 mmHg
- Mean % change of IOP ([3]; Table 3, 3.0% gel, 3 hr): -0.4%
- Mean IOP ([3]; Table 3, 3.0% gel, 3 hr): 25.2 mmHg
- IOP (individual monkey) ([3]; Table 3, 3.0% gel, 7 hr): 23 mmHg and 25 mmHg and 20 mmHg and 29 mmHg and 26 mmHg
- Mean % change of IOP ([3]; Table 3, 3.0% gel, 7 hr): -0.6%
- Mean IOP ([3]; Table 3, 3.0% gel, 7 hr): 25.3 mmHg
- Mean % change of IOP [3, 9]: 0.0%
- Mean IOP [3, 9]: 23.3 mmHg
- IOP (individual monkey) [3, 10]: 24 mmHg and 20 mmHg and 18 mmHg and 30 mmHg and 21 mmHg and 27 mmHg
- Mean % change of IOP ([3]; Table 4, 3.0% gel, 1 hr): 3.3%
- Mean IOP ([3]; Table 4, 3.0% gel, 1 hr): 23.8 mmHg
- IOP (individual monkey) [3, 11]: 25 mmHg and 16 mmHg and 23 mmHg and 28 mmHg and 24 mmHg and 27 mmHg
- Mean % change of IOP ([3]; Table 4, 3.0% gel, 3 hr): -1.8%
- Mean IOP ([3]; Table 4, 3.0% gel, 3 hr): 22.7 mmHg
- IOP (individual monkey) [3, 12]: 27 mmHg and 18 mmHg and 20 mmHg and 25 mmHg and 21 mmHg
- Mean % change of IOP ([3]; Table 4, 3.0% gel, 7 hr): 5.5%
- Mean IOP ([3]; Table 4, 3.0% gel, 7 hr): 24.3 mmHg
- IOP (individual monkey) [3, 13]: 28 mmHg and 20 mmHg and 23 mmHg and 27 mmHg
